{"source": "patent US6656690B2", "about": "“Mass spectrometric methods for biomolecular screening” (priority 1998, dated 2003)", "key": {"[1]": {"target": "prokaryotic 16S rRNA (the A-site)", "conditions": "cited from earlier work"}, "[2]": {"target": "27-mer model of the bacterial A site region, full ribonucleotide R", "test": "Binding to 27-mer A site model as full ribonucleotide (R)", "conditions": "RNA R", "protocol": "The 27-mer model of a segment of the bacterial A site region has been prepared as a full ribonucleotide (see FIG. 27, compound R), and as a chimeric 2′-O-methylribonucleotide containing three deoxyadenosine residues (see FIG. 27, compound C). RNAs R and C have been prepared using conventional phosphoramidite chemistry on solid support. Phosphoramidites were purchased from Glen Research and used as 0.1 M solutions in acetonitrile. RNA R was prepared following the procedure given in Wincott, et al., Nucl. Acids Res., 1995, 23, 2677-2684, the disclosure of which is incorporated herein by reference in its entirety. RNA C was prepared using standard coupling cycles, deprotected, and precipitated from 10 M NH4OAc. The aminoglycoside paromomycin binds to both R and C with kD values of 0.25 and 0.45 micromolar, respectively. The reported kD values are around 0.2 μM. […]\nThe mass spectrum obtained from a 5 μM solution of C mixed with 125 nM paromomycin (FIG. 28A) contains [M-5H]5− ions from free C at m/z 1783.6 and the [M-5H]5− ions of the paromomycin-C complex at m/z 1907.3. […] Signals from the [M-4H]4− ions of C and the complex are detected at m/z 2229.8 and 2384.4, respectively. […] Fragment ions are detected at m/z 1005.6 (w6)2−, 1065.8 (a7-B)2−, 1162.6 (w7)2−, 1756.5 (M-Ad)5−, 2108.9 (w21-Ad)3−, 2153.4 (a20-B)3−, 2217.8 (w21)3−, and 2258.3 (a21-B)3−. […]"}}, "note": "Like-named read-outs stand apart in the source and are kept apart here.", "data": [{"smiles": "NC[C@@H]1O[C@H](O[C@H]2[C@@H](O)[C@H](O[C@@H]3[C@@H](O)[C@H](N)C[C@H](N)[C@H]3O[C@H]3O[C@H](CO)[C@@H](O)[C@H](O)[C@H]3N)O[C@@H]2CO)[C@H](N)[C@@H](O)[C@@H]1O", "note": "[paromomycin]", "values": [{"measurement": "Kd", "setting": "[1]; 16S A-site, previously reported, listed as Paromomycin, read-out: literature / solution KD", "result": "~200", "unit": "nM"}, {"measurement": "Kd", "setting": "[1]; 16S A-site, previously reported, read-out: literature / solution KD", "result": 200, "unit": "nM"}, {"measurement": "Kd", "setting": "[1]; Recht 1996, Wong 1998, Wang 1997, read-out: reported kD values", "result": "~200", "unit": "nM"}, {"measurement": "Kd", "setting": "[1]; test 27-mer RNA, known from other experiments or literature, read-out: binding affinity", "result": "~1000", "unit": "nM"}, {"measurement": "Kd", "setting": "[2]", "result": 250, "unit": "nM"}]}]}
